In US20060111385A1, “Novel 4-phenyl substituted tetrahydroisoquinolines and therapeutic use thereof” (priority 2004, published 2006):
Where a name gives a salt, the structure may show the parent alone.

Experiments:
[1] = system: dopamine transporter protein over the norepinephrine transporter protein; details: selectivity for dopamine transporter protein over norepinephrine transporter protein; cited from earlier work

CN1Cc2c(ccc3ccoc23)C(c2ccc(F)cc2)C1 (stereo not shown) (as salt: hydrochloride)
melting point: 242 to 257 °C

CN1Cc2c(ccc3ccoc23)C(c2ccccc2)C1 (single isomer, unassigned) (as salt: maleate)
melting point: 165 to 168 °C

Cc1ccc(C2CN(C)Cc3c2ccc2ccoc32)cc1 (single isomer, unassigned) (as salt: maleate)
melting point: 190 to 191 °C

COC(=O)C(c1ccccc1)C1CCCCN1 (stereo not shown) [Methylphenidate, methylphenidate]
DAT/NET Ki ratio [1]: 0.1

CN1Cc2c(ccc3ccoc23)C(c2ccccc2)C1 (single isomer, unassigned)
melting point: 81 to 83 °C

CN1Cc2c(ccc3ccoc23)C(c2cc(F)cc(F)c2)C1 (stereo not shown) (as salt: hydrochloride)
melting point: 233 to 236 °C

Cc1ccc(C2CN(C)Cc3c2ccc2ccoc32)cc1 (single isomer, unassigned) (as salt: hydrochloride)
melting point: 240 to 246 °C
